Results from the NIST ThermoML archive (doi:10.1016/j.jct.2004.12.014).

Legend:
[1] = xn = mol fraction of the nth substance listed; settings: 318.15 K, 101 kPa, Liquid
[2] = excess molar enthalpy (molar enthalpy of mixing); xn = mol fraction of the nth substance listed; settings: 318.15 K, 101 kPa, Liquid

CCC(=O)OC [methyl propanoate] + CCCCCCCCCCC
Settings | excess molar enthalpy [kcal/mol] | excess molar volume [m3/mol]
[1], x1 = 0.0968 | – | 4.8e-07
[1], x1 = 0.1299 | – | 6.34e-07
[1], x1 = 0.2313 | – | 1.02e-06
[1], x1 = 0.3207 | – | 1.285e-06
[1], x1 = 0.4052 | – | 1.433e-06
[1], x1 = 0.4772 | – | 1.508e-06
[1], x1 = 0.5465 | – | 1.514e-06
[1], x1 = 0.6062 | – | 1.482e-06
[1], x1 = 0.6609 | – | 1.417e-06
[1], x1 = 0.7121 | – | 1.302e-06
[1], x1 = 0.7581 | – | 1.188e-06
[1], x1 = 0.8001 | – | 1.041e-06
[1], x1 = 0.8396 | – | 9.14e-07
[1], x1 = 0.876 | – | 7.62e-07
[1], x1 = 0.9105 | – | 6.09e-07
[1], x1 = 0.9416 | – | 4.25e-07
[1], x1 = 0.9727 | – | 2.27e-07
[2], x1 = 0.0844 | 0.118 | –
[2], x1 = 0.1733 | 0.219 | –
[2], x1 = 0.2574 | 0.3 | –
[2], x1 = 0.327 | 0.355 | –
[2], x1 = 0.3915 | 0.394 | –
[2], x1 = 0.4431 | 0.416 | –
[2], x1 = 0.4953 | 0.432 | –
[2], x1 = 0.5414 | 0.436 | –
[2], x1 = 0.5798 | 0.434 | –
[2], x1 = 0.6125 | 0.428 | –
[2], x1 = 0.6312 | 0.422 | –
[2], x1 = 0.6661 | 0.406 | –
[2], x1 = 0.7078 | 0.382 | –
[2], x1 = 0.7509 | 0.348 | –
[2], x1 = 0.7942 | 0.307 | –
[2], x1 = 0.8346 | 0.263 | –
[2], x1 = 0.8799 | 0.21 | –
[2], x1 = 0.9235 | 0.148 | –
[2], x1 = 0.9624 | 0.0795 | –

CCCCOC(=O)CC [butyl propanoate] + CCCCCCCCCCC
Settings | excess molar enthalpy [kcal/mol] | excess molar volume [m3/mol]
[1], x1 = 0.0439 | – | 1.43e-07
[1], x1 = 0.0844 | – | 2.51e-07
[1], x1 = 0.1613 | – | 4.24e-07
[1], x1 = 0.2331 | – | 5.45e-07
[1], x1 = 0.3029 | – | 6.41e-07
[1], x1 = 0.3719 | – | 7.16e-07
[1], x1 = 0.4347 | – | 7.45e-07
[1], x1 = 0.4991 | – | 7.49e-07
[1], x1 = 0.5571 | – | 7.43e-07
[1], x1 = 0.6136 | – | 7.09e-07
[1], x1 = 0.6682 | – | 6.64e-07
[1], x1 = 0.7205 | – | 6.18e-07
[1], x1 = 0.7715 | – | 5.27e-07
[1], x1 = 0.8193 | – | 4.41e-07
[1], x1 = 0.8661 | – | 3.61e-07
[1], x1 = 0.9118 | – | 2.76e-07
[1], x1 = 0.9546 | – | 1.35e-07
[2], x1 = 0.0817 | 0.0786 | –
[2], x1 = 0.1628 | 0.132 | –
[2], x1 = 0.2473 | 0.183 | –
[2], x1 = 0.325 | 0.215 | –
[2], x1 = 0.3967 | 0.234 | –
[2], x1 = 0.463 | 0.243 | –
[2], x1 = 0.4868 | 0.243 | –
[2], x1 = 0.5197 | 0.243 | –
[2], x1 = 0.5243 | 0.242 | –
[2], x1 = 0.5644 | 0.239 | –
[2], x1 = 0.6091 | 0.232 | –
[2], x1 = 0.6567 | 0.224 | –
[2], x1 = 0.7051 | 0.201 | –
[2], x1 = 0.7582 | 0.175 | –
[2], x1 = 0.8113 | 0.147 | –
[2], x1 = 0.8642 | 0.114 | –
[2], x1 = 0.9137 | 0.0779 | –
[2], x1 = 0.9601 | 0.04 | –

CCC(=O)OC [methyl propanoate] + CCCCCCC
Settings | excess molar enthalpy [kcal/mol] | excess molar volume [m3/mol]
[1], x1 = 0.0406 | – | 2.5e-07
[1], x1 = 0.0927 | – | 5.08e-07
[1], x1 = 0.1719 | – | 8.36e-07
[1], x1 = 0.248 | – | 1.063e-06
[1], x1 = 0.3249 | – | 1.222e-06
[1], x1 = 0.3904 | – | 1.27e-06
[1], x1 = 0.4571 | – | 1.288e-06
[1], x1 = 0.5214 | – | 1.254e-06
[1], x1 = 0.5761 | – | 1.192e-06
[1], x1 = 0.6333 | – | 1.105e-06
[1], x1 = 0.6853 | – | 1.008e-06
[1], x1 = 0.7372 | – | 9.01e-07
[1], x1 = 0.7844 | – | 7.75e-07
[1], x1 = 0.8305 | – | 6.37e-07
[1], x1 = 0.8748 | – | 4.85e-07
[1], x1 = 0.9184 | – | 3.36e-07
[1], x1 = 0.9596 | – | 1.83e-07
[2], x1 = 0.0703 | 0.0855 | –
[2], x1 = 0.154 | 0.176 | –
[2], x1 = 0.2369 | 0.249 | –
[2], x1 = 0.3018 | 0.296 | –
[2], x1 = 0.3693 | 0.331 | –
[2], x1 = 0.4258 | 0.35 | –
[2], x1 = 0.4809 | 0.362 | –
[2], x1 = 0.5084 | 0.363 | –
[2], x1 = 0.5258 | 0.363 | –
[2], x1 = 0.5447 | 0.361 | –
[2], x1 = 0.586 | 0.353 | –
[2], x1 = 0.6301 | 0.34 | –
[2], x1 = 0.6752 | 0.32 | –
[2], x1 = 0.7232 | 0.295 | –
[2], x1 = 0.7744 | 0.259 | –
[2], x1 = 0.8241 | 0.215 | –
[2], x1 = 0.8704 | 0.168 | –
[2], x1 = 0.9177 | 0.112 | –
[2], x1 = 0.9639 | 0.0537 | –
